Results taken from ChEMBL document CHEMBL1201862, “PubChem BioAssay data set” (2004).
“And” between values parts separate entries of the source, which are not always exact repeats. Equal values may be shown once. The source made the active and inactive calls.

What was measured:
[1] = inhibitors of intracellular T. cruzi replication, confirmation, NIH3T3 host cells, beta-gal luminescence (AID 2044); assay type: functional, cell-based;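 note: intracellular parasites grown in NIH/3T3 mouse fibroblasts as host cells; luminescent beta-galactosidase reporter signal from transgenic T. cruzi replicating inside host cells; inhibitors lower the luminescence signal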
[2] = cytotoxicity toward NIH3T3 fibroblasts, dose response, counter-screen, cell-based, ATP luminescence, mouse fibroblasts (AID 2010); assay type: functional;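 note: cells exposed to compound for about 90 hours before reading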
Cytochrome P450 2C19 = Cytochrome P450 2C19 (Homo sapiens, UniProt P33261); experiment: Cytochrome panel assay with activity outcomes. Panel member name: p450-cyp2c19 Compounds with AC50 equal or less than 10 uM are considered active; assay type: functional
Cytochrome P450 2C19, sequence (P33261 whole entry): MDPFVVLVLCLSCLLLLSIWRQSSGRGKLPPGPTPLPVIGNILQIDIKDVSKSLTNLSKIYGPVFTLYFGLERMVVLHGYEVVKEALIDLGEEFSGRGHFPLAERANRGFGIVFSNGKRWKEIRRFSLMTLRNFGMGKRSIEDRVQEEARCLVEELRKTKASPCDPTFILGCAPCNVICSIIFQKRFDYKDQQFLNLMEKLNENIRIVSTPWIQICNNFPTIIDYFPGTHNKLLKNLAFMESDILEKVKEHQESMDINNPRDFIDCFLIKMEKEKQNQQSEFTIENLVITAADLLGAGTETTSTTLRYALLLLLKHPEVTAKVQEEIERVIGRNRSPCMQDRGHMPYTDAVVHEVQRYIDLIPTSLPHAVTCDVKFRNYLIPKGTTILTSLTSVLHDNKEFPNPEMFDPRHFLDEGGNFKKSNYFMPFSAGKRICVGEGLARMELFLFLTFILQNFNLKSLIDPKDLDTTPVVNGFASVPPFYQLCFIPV

Cytochrome P450 2C9 = Cytochrome P450 2C9 (Homo sapiens, UniProt P11712)
Cytochrome P450 2C9, sequence (P11712 whole entry): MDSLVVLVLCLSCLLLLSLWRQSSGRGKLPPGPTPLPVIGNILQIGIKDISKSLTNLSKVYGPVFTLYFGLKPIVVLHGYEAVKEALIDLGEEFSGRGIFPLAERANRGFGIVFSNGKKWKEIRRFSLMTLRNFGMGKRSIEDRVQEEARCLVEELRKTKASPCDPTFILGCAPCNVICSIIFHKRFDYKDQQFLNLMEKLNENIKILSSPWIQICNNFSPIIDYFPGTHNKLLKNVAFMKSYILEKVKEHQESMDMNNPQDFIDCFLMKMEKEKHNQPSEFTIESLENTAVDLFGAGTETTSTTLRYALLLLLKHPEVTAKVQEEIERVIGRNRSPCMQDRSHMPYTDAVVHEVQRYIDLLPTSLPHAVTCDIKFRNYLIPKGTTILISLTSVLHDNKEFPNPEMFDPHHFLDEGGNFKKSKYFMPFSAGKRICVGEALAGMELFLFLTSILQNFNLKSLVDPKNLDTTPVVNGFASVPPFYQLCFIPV

[3] = tested on: Streptococcus sp. 'group A'; experiment: growth inhibition of control SK(-) GAS strain, dose response, counter-screen for streptokinase expression inhibitor project, luminescence, kanamycin, BacTiterGlo, confirmation (AID 1900); assay type: functional, organism-based
Streptococcus = experiment: Group A Streptococcus viability loss, dose response, counter-screen for streptokinase expression inhibitor project, luminescence, BacTiterGlo (AID 1915); assay type: functional, organism-based;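 note: potency for reduction of bacterial viability or growth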
Cytochrome P450 3A4 = Cytochrome P450 3A4 (Homo sapiens, UniProt P08684);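 note: CYP3A4 tested as one member of a cytochrome P450 panel screen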
Cytochrome P450 3A4, sequence (P08684 whole entry): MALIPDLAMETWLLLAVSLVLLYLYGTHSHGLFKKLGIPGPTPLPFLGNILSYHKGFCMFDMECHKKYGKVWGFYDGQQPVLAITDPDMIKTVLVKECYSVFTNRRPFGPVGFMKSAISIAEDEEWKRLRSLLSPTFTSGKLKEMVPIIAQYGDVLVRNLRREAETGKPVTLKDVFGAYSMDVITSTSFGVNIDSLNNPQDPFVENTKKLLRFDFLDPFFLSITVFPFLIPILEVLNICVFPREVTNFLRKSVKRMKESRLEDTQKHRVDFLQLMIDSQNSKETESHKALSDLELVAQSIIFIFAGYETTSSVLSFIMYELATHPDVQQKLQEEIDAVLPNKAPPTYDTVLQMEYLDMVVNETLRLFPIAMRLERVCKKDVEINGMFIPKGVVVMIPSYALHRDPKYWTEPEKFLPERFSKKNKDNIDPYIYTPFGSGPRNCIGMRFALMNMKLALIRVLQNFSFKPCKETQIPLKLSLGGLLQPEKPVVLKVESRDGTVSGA

[4] = Luminescence Cell-Based Dose Response HTS to Identify Activators of Luciferase Translation or Activity in H4 […] Cells. [Related pubchem assays: 1829 (Project Summary), 1814 (Primary HTS)]; assay type: functional
[5] = target: T1, Corticotropin-releasing factor receptor 2/Corticotropin-releasing factor-binding protein (Homo sapiens, UniProt P24387+Q13324); experiment: activators of CRF receptor 2 with binding protein – uHTS hits, confirmation (AID 602473); assay type: functional; details: read-out: EC50_Mean
T1 sequence (Q13324 whole entry): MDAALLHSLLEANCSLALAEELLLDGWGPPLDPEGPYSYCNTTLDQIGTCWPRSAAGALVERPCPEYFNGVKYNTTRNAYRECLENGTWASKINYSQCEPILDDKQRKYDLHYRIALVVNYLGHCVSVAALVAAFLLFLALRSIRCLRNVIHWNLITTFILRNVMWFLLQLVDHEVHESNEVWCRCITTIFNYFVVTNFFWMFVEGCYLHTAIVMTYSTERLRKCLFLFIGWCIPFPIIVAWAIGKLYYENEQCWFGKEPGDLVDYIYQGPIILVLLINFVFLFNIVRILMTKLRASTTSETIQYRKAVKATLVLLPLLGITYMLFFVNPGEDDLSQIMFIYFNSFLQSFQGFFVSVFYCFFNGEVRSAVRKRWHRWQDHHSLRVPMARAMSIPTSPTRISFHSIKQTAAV
T1 sequence (P24387 whole entry): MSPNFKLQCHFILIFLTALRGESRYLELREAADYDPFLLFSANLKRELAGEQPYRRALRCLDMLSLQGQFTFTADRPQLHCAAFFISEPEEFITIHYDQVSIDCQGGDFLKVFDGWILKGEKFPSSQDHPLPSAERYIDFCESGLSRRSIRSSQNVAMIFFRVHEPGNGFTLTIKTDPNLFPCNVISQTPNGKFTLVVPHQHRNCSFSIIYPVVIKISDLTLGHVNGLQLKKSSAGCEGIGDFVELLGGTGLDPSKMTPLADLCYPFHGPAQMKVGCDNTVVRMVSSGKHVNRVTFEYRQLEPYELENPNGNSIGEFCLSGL

H4 = experiment: Luminescence Cell-Based Dose Response HTS to Identify Activators of 5'UTR Stem-Loop Driven Prion Protein mRNA Translation in H4 Neuroglioblastoma Cells. [Related pubchem assays: 1829 (Project Summary), 1814 (Primary HTS)]; assay type: functional; details: Homo sapiens

With `Cc1cc(C)c(C#N)c(SCC(=O)C(C)(C)C)n1` the EC50 [1] was 1.96 µM (active) and the EC50 [2] was > 60 µM (not active).

In the case of `O=C(O)CNC1=NC2(CCCC2)Cc2ccccc21`, the AC50 (Cytochrome P450 2C19) is reported as “inconclusive”.

With `Fc1ccc(COc2cccc(CNCc3ccncc3)c2)cc1` the EC50 [1] was 6.99 µM (active) and the EC50 [2] was > 60 µM (not active).

In the case of `O=c1c(-c2ccccc2)nc2cncnc2n1Cc1ccccc1Cl`, the AC50 (Cytochrome P450 2C19; read-out: AC50) is reported as 7.94 µM (inconclusive) and the AC50 (Cytochrome P450 2C9) is reported as 3.16 µM (inconclusive).

With `COc1ccc(/C=C/c2ccc3cccc(O)c3n2)c(OC)c1OC` the EC50 [3] was 4.85 µM (active) and the EC50 (Streptococcus) was 6.25 µM (active).

In the case of `Cc1cc(C)c2cc(CN(Cc3cccnc3)C(=O)c3ccc(F)cc3)c(Cl)nc2c1`, the EC50 [1] is reported as 1.08 µM (active) and the EC50 [2] is reported as 5.07 µM (active).

For `CC(C)OCCCN1C(=O)c2ccccc2C1C(=O)NC1CCCCC1` (stereo unspecified), the AC50 (Cytochrome P450 2C19; read-out: AC50) was 35.5 µM (inconclusive) and the AC50 (Cytochrome P450 2C9) was 7.08 µM (inconclusive).

With `O=c1c(-c2ccc(F)cc2)nc2cnc(N3CCNCC3)nc2n1-c1ccccc1` the AC50 (Cytochrome P450 2C19) was “inconclusive” and the AC50 (Cytochrome P450 3A4) was 25.1 µM (inconclusive).

With `COc1ccc(-c2nc3cnc(OCc4ccccc4)nc3n(CCC#N)c2=O)cc1` the AC50 (Cytochrome P450 3A4) was 10 µM (inconclusive).

For `O=C(Nc1ccc(N2CCOCC2)c(Cl)c1)c1ccc(Br)o1`, the EC50 [4] was 0.113 µM (active).

In the case of `COc1ccccc1CCn1c(=O)c(C)nc2cncnc21`, the AC50 (Cytochrome P450 2C9) is reported as 31.6 µM (inconclusive).

In the case of `COc1ccccc1N(CC(O)Cn1c2ccccc2c2ccccc21)S(=O)(=O)c1ccccc1` (stereo unspecified), the EC50 [1] is reported as 2.21 µM (active) and the EC50 [2] is reported as > 60 µM (not active).

For `Cc1ccc2[nH]c(C(=O)N/N=C/c3ccccc3C(=O)O)c(-c3ccccc3)c2c1`, the EC50 [5] was 5.26 µM (active).

In the case of `c1ccc2sc(C3(N4CCCCC4)CCCCC3)cc2c1`, the AC50 (Cytochrome P450 3A4) is reported as 15.8 µM (inconclusive) and 25.1 µM (inconclusive).

With `O=C(Cc1ccccc1)NC(=S)Nc1ccc2oc(-c3ccccc3F)nc2c1` the EC50 [4] was 3.01 µM (active).

For `COc1cc(-c2cc(-c3ccccc3)nc(SCC(=O)Nc3nccs3)c2C#N)cc(OC)c1OC`, the EC50 [1] was 1.72 µM (active) and the EC50 [2] was > 30 µM (not active).

With `COc1ccc(C(C(=O)NC2CCCC2)N(C(=O)c2snc(-c3ccc(F)cc3)c2N)c2ccccc2)cc1` (stereo unspecified) the AC50 (Cytochrome P450 2C9) was 0.891 µM (inconclusive).

In the case of `C=C1C(O)(c2ccccc2)C2CC[N+]1(C)CC2.[Cl-]` (stereo unspecified), the AC50 (Cytochrome P450 2C19) is reported as “inconclusive” and the AC50 (Cytochrome P450 3A4) is reported as 3.16 µM (inconclusive).

For `CCOc1cc(/C=C2\N=C(C)OC2=O)cc(Br)c1OCC(=O)OC`, the AC50 (Cytochrome P450 2C9) was 25.1 µM (inconclusive).

For `CCCCCCNC=C1C(=O)N(C)C(=O)N(C)C1=O`, the AC50 (Cytochrome P450 2C19; read-out: AC50) was 15.8 µM (inconclusive) and the AC50 (Cytochrome P450 2C9) was 14.1 µM (inconclusive).

With `CCC1=NN(C(=O)CCc2ccccc2)C(O)(C(F)(F)F)C1` (stereo unspecified) the AC50 (Cytochrome P450 3A4) was 15.8 µM (inconclusive).

With `Cc1cccc(CN2CCN(CCCc3ccccc3)CC2)c1` the EC50 [1] was 0.478 µM (active) and the EC50 [2] was > 60 µM (not active).

In the case of `CCCc1ccc2oc(C(=O)N3CCC[C@H]3CO)c(C)c2c1`, the EC50 [4] is reported as 1.11 µM (active) and the EC50 (H4) is reported as > 120 µM (not active).

With `CO[C@@H]1COC(=O)C/C=C\[C@@H](C)COC(=O)[C@H](COCc2ccccc2)NC(=O)C/C=C\[C@H]1C` the AC50 (Cytochrome P450 3A4) was 3.98 µM (inconclusive).

For `CC(C)(C)NC(=O)NC(=O)CSc1nnc2ccccn12`, the AC50 (Cytochrome P450 2C9) was 17.8 µM (inconclusive).

With `COc1ccc([C@H]2/C=C\CN(S(=O)(=O)c3ccc4ccccc4c3)[C@@H](C)C(=O)N2Cc2ccc(F)cc2)cc1` the EC50 [1] was 2.03 µM (active) and the EC50 [2] was > 60 µM (not active).

For `Cc1ccc(NC(=O)NNS(=O)(=O)c2ccc(Br)cc2)cc1`, the AC50 (Cytochrome P450 2C9) was 1 µM (inconclusive).
